The results in this text go back to ChEMBL document CHEMBL3045085, “Structureactivity relationship study of growth inhibitory 2-styrylchromones against carcinoma cells” (2013).

Holding throughout (assay type): functional
The nature of test [1]: Growth inhibition of Homo sapiens (human) SKHep cells after 48 hr by MTT assay. (In general: Tetrazolium dyes change colour on reduction, which living cells bring about.)
Test [2] in a line: Growth inhibition of Homo sapiens (human) H460 cells after 48 hr by MTT assay. To be noted: NCI-H460, 48 h.
The test system of another test is OVCAR. Description: Growth inhibition of Homo sapiens (human) OVCAR cells after 48 hr by MTT assay.
A further test concerns HeLa. As to the kind of experiment: Growth inhibition of Homo sapiens (human) HeLa cells after 48 hr by MTT assay.
A further test deals with AGS. Description: Growth inhibition of Homo sapiens (human) AGS cells after 48 hr by MTT assay.
In a further test the test system is SW-620. Description: Growth inhibition of Homo sapiens (human) SW620 cells after 48 hr by MTT assay. To be noted: SW-620, 48 h.
Another test has as its system PC-3. Description: Growth inhibition of Homo sapiens (human) PC3 cells after 48 hr by MTT assay. To be noted: PC-3, 48 h.

The term GI50 denotes the concentration that inhibits growth by half. Lower therefore signals greater sensitivity of the cells.

As for `O=c1cc(/C=C/c2ccc3c(c2)OCO3)oc2ccccc12`, the GI50 in test [1] was > 40 µM; in test [2], > 40 µM; in the test with OVCAR it was > 40 µM; in the test on HeLa, 14 µM; in the test on AGS it was > 40 µM.
For `O=c1cc(/C=C/c2ccccc2)oc2ccccc12`, the GI50 in test [1] is > 40 µM; in test [2], > 40 µM; with OVCAR, 21 µM; with HeLa, 25 µM; with AGS, > 40 µM.
Take `COc1cccc2c1C(=O)c1c(O)c3c(c(O)c1C2=O)C[C@@](O)(C(=O)CO)C[C@@H]3O[C@H]1C[C@H](N)[C@H](O)[C@H](C)O1` [DOXORUBICIN]: the GI50 with SW-620 is 0.03 µM; in the test with PC-3 it was 1.76 µM; in test [1] it was 0.09 µM; in test [2], 0.11 µM; in the test with OVCAR it was 0.95 µM; with HeLa, 0.33 µM. In addition, in the test on AGS, the GI50 amounted to 0.02 µM.
